Experimental data as given in patent publication US20230372263A1, “METHODS AND COMPOSITIONS FOR TREATING AMYOTROPHIC LATERAL SCLEROSIS” (Amylyx Pharmaceuticals, Inc., priority 2022, published 2023).
One block for each compound: values may come before it.

Legend:
clinical [1] = format: in vivo, human; details: human, in vivo; for AUC(0-t): AUC(0-last)
Description: (§1) • Protocol AMX3500: sparse sampling in 87 subjects with ALS. Approximately 2 samples are collected for each subject, 1 or 4 hours post dose following 12 and 24 weeks of treatment. • Protocol A35-002: rich sampling in 14 healthy adults. Approximately 21 samples are collected over 24 hours for each subject on two occasions, once following a high fat meal and the other under fasting conditions.
A total of 14 healthy subjects were enrolled in order to have no fewer than 12 subjects complete. A predefined mix of gender was selected.
Each study period followed the same study design (FIG. 1). Subjects were screened for inclusion in the study up to 28 days before dosing. Subjects were admitted to the clinical unit during Study Day −2 for Period 1 and Day −1 for Period 2 and were dosed in the morning of Day 1. On the night prior to Period 1 the subjects in the fasted/fed or fed/fasted sequence were fasted for a minimum of 10 h prior to dosing.
The solution was stirred until the powder was mostly dissolved.
Any departures from the intended regimen were recorded in the eCRFs. All dose administrations were performed in the study center under the supervision of appropriately trained staff.
Subjects were provided with a light snack and were then fasted from all food and drink (except water) until the following morning, when they were provided with a high-fat breakfast. The breakfast was consumed over a maximum period of 25 min, and dosing occurred 30 min after the start of breakfast. Subjects were encouraged to eat their meal evenly over the 25 min period. For this trial the subject was deemed compliant if they consumed >80% of the high-fat standard breakfast.
The subjects in the 24-h baseline and in the fasted condition Period remained fasted up to 4 h post-dose and were offered a standardized meal to be taken between 4.00 and 5.00 h post-dose. Subjects in the fed condition were fasted overnight and received a high-fat standard breakfast 30 minutes pre-dose and then remained fasted for 4.00 to 5.00 h post-dose when they received a standardized meal.
Venous blood samples were withdrawn via an indwelling cannula or by venipuncture according to the time schedule presented in Table 5 Table, Table 6, and Table 7.
Blood samples of approximately 4 mL were collected into 4 mL BD Vacutainer Plastic K2EDTA Tubes with Lavender Hemogard Closure, and was gently inverted approximately 8 times. The tubes were then immediately stored on ice and processed within 60 min of collection by centrifugation at 1500 g for 10 min at 2 to 8° C. The resultant plasma was separated equally into 2 aliquots and transferred to 2 mL appropriately labelled primary and backup polypropylene cryovials.
Actual elapsed time from dosing was to be used for the final plasma PK parameter calculations after database lock.

clinical [2] = format: in vivo, human; details: human, in vivo; for concentration at 1 h / concentration at 4 h: both sexes
Description: • 1. […] Treatment is administered as one sachet daily for the initial 3 weeks and then increased if tolerated to one sachet twice daily. […] Sampling times are randomly assigned to occur at either 1 or 4 hours post-dose at the 12 week visit and the other time at the 24 week visit. • Treatment duration: 24 weeks • 2.
as §1
Subjects were advised to take the drug before a meal. […] Referred to as protocol 3500.
A study was carried out to examine plasma concentration data in various subgroups for the protocol AMX3500 Phase 2 study. This example summarizes plasma concentrations of TUDCA and 2 metabolites, also related acids, UDCA, the de-conjugated TUDCA metabolite, and GUDCA, the glycine conjugate of UDCA.
For each of the 2 treatment arms (treatment and placebo), subjects were further divided into 2 sample sequence groups for schedule of pharmacokinetic measurements: • 1. 1 hour post-dose for the Week 12 visit and 4 hours post-dose for the Week 24 visit • 2. 4 hours post-dose for the Week 12 visit and 1 hour post-dose for the Week 24 visit
Twenty-four distinct medication descriptions were identified as containing antibiotics. Dates of antibiotic use were compared to dates of visits and if the antibiotic use date range contained the visit date, then that visit was flagged for that subject's data for antibiotic use. […] These antibiotics could hypothetically be in a subject's body still if this event occurred. However, it was observed that only a small number of subjects took antibiotics near to visit dates but not overlapping visit dates. In other cases, subjects were taking antibiotics on the date of one visit but not the others. Some subjects are therefore in both categories of antibiotic use and nonuse, though no individual visits for a subject are counted in both categories at the same time.
Subjects whose race were recorded as “Black” or “African American” were evaluated according to the standard Glomerular Filtration Rate (eGFR) rating for that race. The other standard eGFR rating used, sometimes referred to as a standard for people who are White, was applied to subjects of all other races. These rates were analyzed as continuous in mL/min/1.73 m2 units and as the following categories: • 1. Less than 90 mL/min/1.73 m^2 • 2. Equal to or greater than 90 mL/min/1.73 m^2
Age was converted from a continuous variable to 2 categories: • 1. As old or older than 65 years old • 2. Younger than 65 years old
All boxplots boxes are bounded at the 25th and 75th percentile, with whiskers at 10th and 90th percentiles, outliers beyond that as points, the black line as median, and red line as mean.

[3] = Steady-state plasma concentration

- AUC(0-inf) (clinical [1]; both sexes, AUC(0-inf)): 11300 ng·h/mL
- AUC(0-t) (clinical [1]; both sexes): 5540 ng·h/mL
- Cmax (clinical [1]; both sexes): 639 ng/mL
- half-life (clinical [1]; both sexes, elimination half-lives (range)): 3.01 to 7.58 h
- Cmax (clinical [1]; both sexes, po): 639 ng/mL
- AUC(0-inf) (clinical [1]; both): 11300 ng·h/mL
- AUC(0-last) Ratio of adj geo means Fed/Fasted (GMR) (clinical [1]; both): 136.34%
- AUG(0-last) (clinical [1]; both): 5540 (72.5) ng.h/ml
- Cmax Ratio of adj geo means Fed/Fasted (GMR) (clinical [1]; both): 112.17%
- Tmax Median (clinical [1]; both): 6.000 h
- increase in AUC(0-last), fed relative to fasted (clinical [1]; both): ~36%
- increase in Cmax, fed relative to fasted (clinical [1]; both): approximately 12%
- peak exposure to metabolite as % of that for parent (clinical [1]; both): approximately 86%
- time of maximum plasma concentrations (range) (clinical [1]; both): 0.25 to 20.00 h
- total exposure to metabolite based on AUC(0-last) as % of that for parent (clinical [1]; both): approximately 127%
- AUC(0-last), Adj Geo Mean (clinical [1]; both, po): 5530 ng·h/mL
- AUC(0-last), Ratio of adj geo means Fed/Fasted (clinical [1]; both, po): 136.34%
- Cmax, Adj Geo Mean (clinical [1]; both, po): 635 ng/mL
- Cmax, Ratio of adj geo means Fed/Fasted (clinical [1]; both, po): 112.17%
- Tmax Median (clinical [1]; both, po): 6.000 h
- concentration at 1 h (clinical [2]; Plasma Concentration, Mean): 1080 ng/mL
- concentration at 4 h (clinical [2]; Plasma Concentration, Mean): 1300 ng/mL
- concentration at 1 h (clinical [2]; Plasma Concentration, Median): 592 ng/mL
- concentration at 4 h (clinical [2]; Plasma Concentration, Median): 920 ng/mL
- concentration at 1 h (clinical [2]; [3]): 910 ng/mL
- concentration at 4 h (clinical [2]; [3]): 1170 ng/mL
- Plasma Concentration, Min (clinical [2]; both): 20.0 ng/mL
- Plasma Concentration, Q1 (clinical [2]; both): 20.0 ng/mL
- steady state reached by (clinical [2]; both): ≤ 12 Week
- Plasma Concentration, Mean (clinical [2]; both, 1 h): 909.9 ng/mL
- Plasma Concentration, Median (clinical [2]; both, 1 h): 614.0 ng/mL
- Plasma Concentration, Min (clinical [2]; both, 4 h): 20.0 ng/mL
- accumulation in plasma after once- or twice-daily dosing (clinical [2]): substantial accumulation
- effect of age on steady-state plasma concentration (clinical [2]): no difference
- effect of mild renal insufficiency on steady-state plasma concentration (clinical [2]): no discernible difference
Structure (SMILES): C[C@H](CCC(=O)O)[C@H]1CC[C@H]2[C@@H]3[C@@H](O)C[C@@H]4C[C@H](O)CC[C@]4(C)[C@H]3CC[C@]12C [UDCA, ursodeoxycholic acid]
- steady-state plasma concentrations versus endogenous levels (clinical [2]): at least an order of magnitude higher than endogenous levels

- Tmax (clinical [1]; both sexes, Tmax Median): 16 h
- AUC(0-t) (clinical [1]; both sexes, po, Geometric Mean): 4140 ng·h/mL
- Cmax (clinical [1]; both sexes, po): 381 ng/mL
- Cmax (clinical [1]; both sexes, po, Geometric Mean): 381 ng/mL
- half-life (clinical [1]; both sexes, po, T1/2, Geometric Mean): 12.7 h
- AUC(0-last) Ratio of adj geo means Fed/Fasted (GMR) (clinical [1]; both): 137.31%
- AUG(0-last) (clinical [1]; both): 5060 (88.2) ng.h/ml
- Cmax Ratio of adj geo means Fed/Fasted (GMR) (clinical [1]; both): 134.45%
- MR Cmax (metabolite to parent ratio) (clinical [1]; both): 0.571
- T1/2 (clinical [1]; both): 12.744 h
- increase in AUC(0-last), fed relative to fasted (clinical [1]; both): ~37%
- peak exposure to metabolite as % of that for parent (clinical [1]; both): approximately 51%
- time of maximum plasma concentrations (range) (clinical [1]; both): 6.00 to 20.00 h
- total exposure to metabolite based on AUC(0-last) as % of that for parent (clinical [1]; both): approximately 95%
- AUC(0-last), Adj Geo Mean (clinical [1]; both, po): 4200 ng·h/mL
- AUC(0-last), Max (clinical [1]; both, po): 12000 ng·h/mL
- AUC(0-last), Median (clinical [1]; both, po): 3400 ng·h/mL
- AUC(0-last), Min (clinical [1]; both, po): 1840 ng·h/mL
- AUC(0-last), Ratio of adj geo means Fed/Fasted (clinical [1]; both, po): 137.31%
- Cmax, Adj Geo Mean (clinical [1]; both, po): 382 ng/mL
- Cmax, Max (clinical [1]; both, po): 1420 ng/mL
- Cmax, Median (clinical [1]; both, po): 353 ng/mL
- Cmax, Min (clinical [1]; both, po): 143 ng/mL
- Cmax, Ratio of adj geo means Fed/Fasted (clinical [1]; both, po): 134.45%
- Lambda-z, Geometric Mean (clinical [1]; both, po): 0.0543 h⁻¹
- Lambda-z, Max (clinical [1]; both, po): 0.0544 h⁻¹
- Lambda-z, Median (clinical [1]; both, po): 0.0543 h⁻¹
- Lambda-z, Min (clinical [1]; both, po): 0.0544 h⁻¹
- T1/2, Max (clinical [1]; both, po): 12.74 h
- T1/2, Median (clinical [1]; both, po): 12.744 h
- T1/2, Min (clinical [1]; both, po): 12.74 h
- Tmax, Max (clinical [1]; both, po): 20.00 h
- Tmax, Min (clinical [1]; both, po): 6.00 h
- MR AUC(0-last) (clinical [1]): 1.056
- concentration at 1 h (clinical [2]; Plasma Concentration, Mean): 1020 ng/mL
- concentration at 4 h (clinical [2]; Plasma Concentration, Mean): 1510 ng/mL
- concentration at 1 h (clinical [2]; Plasma Concentration, Median): 773 ng/mL
- concentration at 4 h (clinical [2]; Plasma Concentration, Median): 1500 ng/mL
- concentration at 1 h (clinical [2]; [3]): 1070 ng/mL
- concentration at 4 h (clinical [2]; [3]): 1320 ng/mL
- steady state reached by (clinical [2]; both): ≤ 12 Week
- Plasma Concentration, Median (clinical [2]; both, 1 h): 815.0 ng/mL
- Plasma Concentration, Median (clinical [2]; both, 4 h): 1190.0 ng/mL
- Plasma Concentration, Min (clinical [2]; both, 4 h): 20.0 ng/mL
- accumulation in plasma after once- or twice-daily dosing (clinical [2]): substantial accumulation
- effect of age on steady-state plasma concentration (clinical [2]): no difference
- effect of mild renal insufficiency on steady-state plasma concentration (clinical [2]): no discernible difference
Structure (SMILES): C[C@H](CCC(=O)NCC(=O)O)[C@H]1CC[C@H]2[C@@H]3[C@@H](O)C[C@@H]4C[C@H](O)CC[C@]4(C)[C@H]3CC[C@]12C [GUDCA, glycoursodeoxycholic acid]
- steady-state plasma concentrations versus endogenous levels (clinical [2]): at least an order of magnitude higher than endogenous levels
